# In ChEMBL document CHEMBL1141842, “Amathaspiramides A-F, novel brominated alkaloids from the marine bryozoan amathia wilsoni” (J Nat Prod, 1999):
# Active and inactive are the calls of the source. No cut-off for these calls is given here.
# Legend:
# [1] = test system: Trichophyton mentagrophytes; assay: Antifungal activity against Trichophyton mentagrophytes at 60 ug/disk; assay type: functional; conditions: for zone of inhibition at 60 µg/disc: read-out: IZ
# Poliovirus 1 = assay: Antiviral activity against Human poliovirus 1 at 40 ug/well; assay type: functional, organism-based
# Bacillus subtilis = assay: Antibacterial activity against Bacillus subtilis at 60 ug/disk; assay type: functional; conditions: for zone of inhibition at 60 µg/disc: read-out: IZ
# P388 = assay: Cytotoxicity against mouse P388 cells; assay type: functional, cell-based
structure (smiles),measurement,setting,value
COc1cc([C@H]2[C@@H](O)N(C)C(=O)[C@]23CCC=N3)c(Br)cc1Br [AMATHASPIRAMIDE E],zone of inhibition at 60 µg/disc,[1],1 mm
same,Activity,Poliovirus 1,Active
same,zone of inhibition at 60 µg/disc,Bacillus subtilis,1 mm
same,IC50,P388,> 12.5 µg/mL
COc1cc([C@H]2[C@@H](O)N(C)C(=O)[C@]23CCCN3C)c(Br)cc1Br [AMATHASPIRAMIDE A],zone of inhibition at 60 µg/disc,[1],1 mm
same,zone of inhibition at 60 µg/disc,Bacillus subtilis,1 mm
same,IC50,P388,> 12.5 µg/mL
COc1cc([C@H]2[C@@H](O)N(C)C(=O)[C@]23CCC(=O)N3C)c(Br)cc1Br [AMATHASPIRAMIDE B],Activity,[1],inactive
same,Activity,Poliovirus 1,inactive
same,Activity,Bacillus subtilis,inactive
same,IC50,P388,> 12.5 µg/mL
COc1cc([C@H]2[C@@H](O)N(C)C(=O)[C@]23CCCN3)c(Br)cc1Br [AMATHASPIRAMIDE C],Activity,[1],inactive
same,Activity,Poliovirus 1,inactive
same,Activity,Bacillus subtilis,inactive
same,IC50,P388,> 12.5 µg/mL
